According to patent US10035797B2, “Fused amino pyridine as HSP90 inhibitors” (Curis, Inc., priority 2007, dated 2018):

Molecular target: HSP90 (Homo sapiens (Human), UniProt P07900)
Assay: HSP90 competition binding (fluorescence polarization) assay
Conditions: FITC labeled GM, 24 hours at 4° C.
From the text: (b) HSP90 Competition Binding (Fluorescence Polarization) Assay.
A fluorescein isothiocyanate (FITC) labeled GM was purchase from InvivoGen (ant-fgl-1). The interaction between HSP90 and labeled GM forms the basis for the fluorescence polarization assay. A free and fast-tumbling FITC labeled GM emits random light with respect to the plane of polarization plane of excited light, resulting in a lower polarization degree (mP) value. When GM is bound to HSP90, the complex tumble slower and the emitted light is polarized, resulting in a higher mP value. […] The assay buffer contained 20 mM HEPES (pH 7.3), 50 mM KCl, 1 mM DTT, 50 mM MgCl2, 20 mM Na2MoO4, 0.01% NP40 with 0.1 mg/ml bovine gamma-globulin.

IC50: 0.1 to 1 µM
SMILES: CC(C)(C)CNCCCn1c(Sc2cc3c(cc2I)OCO3)nc2c(N)nccc21 [Compound 56, 2-(6-iodobenzo[d][1,3]dioxol-5-ylthio)-1-(3-(neopentylamino)propyl)-1H-imidazo[4,5-c]pyridin-4-amine]
